Experimental findings from PubChem BioAssay (NCI) are described below.

Where “and” joins values, the source holds several entries; their conditions need not be identical. Equal entries are not always repeated.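 The compound was tested at five concentrations on cells cultured in 96-well plates, with a 48-hour exposure period. GI50: concentration for 50% inhibition of growth. TGI is the concentration that stops growth completely.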

For one test, the system named is A498 renal. The experiment in a line: NCI tumour cell line growth inhibition, 48 h.
Turning to `CCOc1cccc(/C=N/NC(=O)c2ccccc2Nc2ccnc(C(F)(F)F)c2)c1O`, the GI50 was 20.1 µM and the TGI is more than 74.8 µM.
In the same order, the values of `COc1ccc2c(c1)c(-c1nc(-c3cn(C)c4ncccc34)cs1)cn2CCCN1CCCCC1` are 2.4 µM and 6.22 µM.
For the compound `CSc1cc(N=Nc2nc3ccccc3s2)c2ccccc2c1O`, the GI50 is 23.3 µM and the TGI came to 45.5 µM.
Take `CCOC(=O)/C=C(/C(=O)OCC)n1cc(Cl)c(=O)n(CC(=O)OCC)c1=O`: the TGI is 34.6 µM.
On to `CC1=C(C(=O)Nc2ccc3[nH]ncc3c2)C(c2ccc3ccccc3c2)CC(=O)N1` (stereo not drawn), for which the GI50 is 4.22 µM and the TGI was found to be 22 µM.
In turn, `O=C1NNC=Nc2ccc(cc2)S(=O)(=O)c2ccc(cc2)N=CNNC1=O` returned a TGI of more than 100 µM.
Take `CC1OC(O[C@H]2C[C@@H](O)[C@]3(CO)[C@H]4[C@H](O)C[C@]5(C)[C@@H](C6=CC(=O)OC6)CC[C@]5(O)[C@@H]4CC[C@]3(O)C2)C(O)C(O)C1O` (stereo partly drawn): the GI50 was 20.4 µM and the TGI was 39 µM.
In the same order, the values of `CCCCC(=O)OCC1OC(n2cnc3c(=S)nc[nH]c32)C(OC(=O)CCCC)C1OC(=O)CCCC` (stereo not drawn) are 9.54 µM and more than 96.1 µM.
In the same order, the values of `O=c1oc2ccc(F)cc2c(=O)n1-c1ccc(F)cc1F` are 1.62 µM and 3.91 µM.
With `Cn1cc(-c2cnc3ccc(NC(=O)Nc4ccc(F)c(Br)c4)cc3n2)cn1`, the GI50 was 1.51 µM and the TGI is 4.04 µM.
In the case of `O=C(O)CCCCC(CCSCc1ccccc1)SCc1ccccc1` (stereo not drawn), the GI50 was more than 38.9 µM and the TGI was more than 96.7 µM.
With `CC1=C(CCCNS(C)(=O)=O)C2=C(C)C3(CC3)[C@@](C)(O)C(=O)C2=C1`, the GI50 was 1.05 µM and the TGI came out at 2.77 µM.
The compound `O=C1CNCCCN2CCN(CCCNCC(=O)Nc3ccc(cc3)S(=O)(=O)c3ccc(cc3)NC(=O)CNCCCN3CCN(CCCNCC(=O)Nc4ccc(cc4)S(=O)(=O)c4ccc(cc4)N1)CC3)CC2` registered a TGI of 47.1 µM.
In the case of `N#Cc1ccc(C#Cc2ccccc2C#CCCCCO)cc1`, the GI50 is 13.8 µM and the TGI came out at 27.7 µM.
With `O=NN(Cc1ccc(Cl)cc1)C(C(=O)O)c1ccccc1` (stereo not drawn), the TGI was more than 100 µM.

For the next test, the system named is BT-549 breast. The experiment in a line: NCI tumour cell line growth inhibition, 48 h.
`CCOc1cccc(/C=N/NC(=O)c2ccccc2Nc2ccnc(C(F)(F)F)c2)c1O`: the GI50 is 0.494 µM and the TGI was determined as 53.6 µM.
In the case of `COc1ccc2c(c1)c(-c1nc(-c3cn(C)c4ncccc34)cs1)cn2CCCN1CCCCC1`, the GI50 was 4.91 µM and the TGI was determined as 19.5 µM.
Consider `CSc1cc(N=Nc2nc3ccccc3s2)c2ccccc2c1O`, for which the GI50 is 6.28 µM and the TGI came out at 14 µM.
In the case of `CCOC(=O)/C=C(/C(=O)OCC)n1cc(Cl)c(=O)n(CC(=O)OCC)c1=O`, the TGI was 10.6 µM and 37.8 µM.
Take `CC1=C(C(=O)Nc2ccc3[nH]ncc3c2)C(c2ccc3ccccc3c2)CC(=O)N1` (stereo not drawn): the GI50 is 4.11 µM and the TGI is more than 25 µM.
`O=C1NNC=Nc2ccc(cc2)S(=O)(=O)c2ccc(cc2)N=CNNC1=O` registered a TGI of more than 100 µM.
On to `CC1OC(O[C@H]2C[C@@H](O)[C@]3(CO)[C@H]4[C@H](O)C[C@]5(C)[C@@H](C6=CC(=O)OC6)CC[C@]5(O)[C@@H]4CC[C@]3(O)C2)C(O)C(O)C1O` (stereo partly drawn), for which the GI50 is 18 µM and the TGI came out at 32.7 µM.
In the same order, the values of `CCCCC(=O)OCC1OC(n2cnc3c(=S)nc[nH]c32)C(OC(=O)CCCC)C1OC(=O)CCCC` (stereo not drawn) are 1.11 µM and more than 28.7 µM.
In the same order, the values of `O=c1oc2ccc(F)cc2c(=O)n1-c1ccc(F)cc1F` are 2.53 µM and 7.4 µM.
Turning to `Cn1cc(-c2cnc3ccc(NC(=O)Nc4ccc(F)c(Br)c4)cc3n2)cn1`, the GI50 is 1.51 µM and the TGI is 3.24 µM.
In the case of `O=C(O)CCCCC(CCSCc1ccccc1)SCc1ccccc1` (stereo not drawn), the GI50 is 50.8 µM and the TGI is more than 100 µM.
Consider `CC1=C(CCCNS(C)(=O)=O)C2=C(C)C3(CC3)[C@@](C)(O)C(=O)C2=C1`, for which the GI50 is 0.749 µM and the TGI worked out at 3.89 µM.
`O=C1CNCCCN2CCN(CCCNCC(=O)Nc3ccc(cc3)S(=O)(=O)c3ccc(cc3)NC(=O)CNCCCN3CCN(CCCNCC(=O)Nc4ccc(cc4)S(=O)(=O)c4ccc(cc4)N1)CC3)CC2`: the TGI was 58.4 µM.
Turning to `N#Cc1ccc(C#Cc2ccccc2C#CCCCCO)cc1`, the GI50 is 14.7 µM and the TGI was determined as 29.3 µM.
Consider `O=NN(Cc1ccc(Cl)cc1)C(C(=O)O)c1ccccc1` (stereo not drawn), for which the TGI is more than 100 µM.

In a further test the test system is IGROV1 ovarian. The experiment in a line: NCI tumour cell line growth inhibition, 48 h.
`CCOc1cccc(/C=N/NC(=O)c2ccccc2Nc2ccnc(C(F)(F)F)c2)c1O`: the GI50 was 0.0425 µM and the TGI came out at 0.243 µM.
For `COc1ccc2c(c1)c(-c1nc(-c3cn(C)c4ncccc34)cs1)cn2CCCN1CCCCC1`, the GI50 was 1.74 µM and the TGI was 3.46 µM.
For `CSc1cc(N=Nc2nc3ccccc3s2)c2ccccc2c1O`, the GI50 was 7.64 µM and the TGI was determined as 24.3 µM.
Regarding `CCOC(=O)/C=C(/C(=O)OCC)n1cc(Cl)c(=O)n(CC(=O)OCC)c1=O`, the GI50 was 17.8 µM; the TGI was 9.25 µM and 37.1 µM.
Regarding `CC1=C(C(=O)Nc2ccc3[nH]ncc3c2)C(c2ccc3ccccc3c2)CC(=O)N1` (stereo not drawn), the GI50 was 8.08 µM and the TGI is more than 25 µM.
In turn, `O=C1NNC=Nc2ccc(cc2)S(=O)(=O)c2ccc(cc2)N=CNNC1=O` came in with a TGI of more than 100 µM.
`CC1OC(O[C@H]2C[C@@H](O)[C@]3(CO)[C@H]4[C@H](O)C[C@]5(C)[C@@H](C6=CC(=O)OC6)CC[C@]5(O)[C@@H]4CC[C@]3(O)C2)C(O)C(O)C1O` (stereo partly drawn): the GI50 is 19.7 µM and the TGI is 36.7 µM.
`CCCCC(=O)OCC1OC(n2cnc3c(=S)nc[nH]c32)C(OC(=O)CCCC)C1OC(=O)CCCC` (stereo not drawn): the GI50 was 3.86 µM and the TGI was more than 39.4 µM.
`O=c1oc2ccc(F)cc2c(=O)n1-c1ccc(F)cc1F`: the GI50 is 3.01 µM and the TGI is more than 100 µM.
In the case of `Cn1cc(-c2cnc3ccc(NC(=O)Nc4ccc(F)c(Br)c4)cc3n2)cn1`, the GI50 was 1.6 µM and the TGI amounted to 3.49 µM.
With `O=C(O)CCCCC(CCSCc1ccccc1)SCc1ccccc1` (stereo not drawn), the GI50 is 42.4 µM and the TGI was more than 100 µM.
With `CC1=C(CCCNS(C)(=O)=O)C2=C(C)C3(CC3)[C@@](C)(O)C(=O)C2=C1`, the GI50 was 0.259 µM and the TGI was determined as 1.15 µM.
`O=C1CNCCCN2CCN(CCCNCC(=O)Nc3ccc(cc3)S(=O)(=O)c3ccc(cc3)NC(=O)CNCCCN3CCN(CCCNCC(=O)Nc4ccc(cc4)S(=O)(=O)c4ccc(cc4)N1)CC3)CC2` showed a TGI of more than 69.7 µM.
In the case of `N#Cc1ccc(C#Cc2ccccc2C#CCCCCO)cc1`, the GI50 was 13.6 µM and the TGI turned out to be 27.6 µM.
`O=NN(Cc1ccc(Cl)cc1)C(C(=O)O)c1ccccc1` (stereo not drawn) yielded a TGI of more than 100 µM.

Another test has as its system M14 melanoma. The experiment in a line: NCI tumour cell line growth inhibition, 48 h.
Consider `CCOc1cccc(/C=N/NC(=O)c2ccccc2Nc2ccnc(C(F)(F)F)c2)c1O`, for which the GI50 is 0.661 µM and the TGI was found to be 2.91 µM.
On to `COc1ccc2c(c1)c(-c1nc(-c3cn(C)c4ncccc34)cs1)cn2CCCN1CCCCC1`, for which the GI50 was 1.65 µM and the TGI was determined as 3.11 µM.
For the compound `CSc1cc(N=Nc2nc3ccccc3s2)c2ccccc2c1O`, the GI50 was 9.55 µM and the TGI amounted to 21.6 µM.
With `CCOC(=O)/C=C(/C(=O)OCC)n1cc(Cl)c(=O)n(CC(=O)OCC)c1=O`, the GI50 was 18 µM; the TGI is 10.4 µM and 40.2 µM.
On to `CC1=C(C(=O)Nc2ccc3[nH]ncc3c2)C(c2ccc3ccccc3c2)CC(=O)N1` (stereo not drawn), for which the GI50 was more than 25 µM and the TGI is more than 25 µM.
With `O=C1NNC=Nc2ccc(cc2)S(=O)(=O)c2ccc(cc2)N=CNNC1=O`, the TGI was more than 100 µM.
Turning to `CC1OC(O[C@H]2C[C@@H](O)[C@]3(CO)[C@H]4[C@H](O)C[C@]5(C)[C@@H](C6=CC(=O)OC6)CC[C@]5(O)[C@@H]4CC[C@]3(O)C2)C(O)C(O)C1O` (stereo partly drawn), the GI50 is 27.7 µM and the TGI was 87.5 µM.
In the same order, the values of `CCCCC(=O)OCC1OC(n2cnc3c(=S)nc[nH]c32)C(OC(=O)CCCC)C1OC(=O)CCCC` (stereo not drawn) are 0.779 µM and 10.7 µM.
As to `O=c1oc2ccc(F)cc2c(=O)n1-c1ccc(F)cc1F`, the GI50 was 2.47 µM and the TGI is 8.04 µM.
As for `Cn1cc(-c2cnc3ccc(NC(=O)Nc4ccc(F)c(Br)c4)cc3n2)cn1`, the GI50 was 1.57 µM and the TGI is 3.14 µM.
For the compound `O=C(O)CCCCC(CCSCc1ccccc1)SCc1ccccc1` (stereo not drawn), the GI50 is 55.4 µM and the TGI is more than 100 µM.
On to `CC1=C(CCCNS(C)(=O)=O)C2=C(C)C3(CC3)[C@@](C)(O)C(=O)C2=C1`, for which the GI50 is 0.807 µM and the TGI came to 2.75 µM.
In the case of `O=C1CNCCCN2CCN(CCCNCC(=O)Nc3ccc(cc3)S(=O)(=O)c3ccc(cc3)NC(=O)CNCCCN3CCN(CCCNCC(=O)Nc4ccc(cc4)S(=O)(=O)c4ccc(cc4)N1)CC3)CC2`, the TGI is more than 100 µM.
Regarding `N#Cc1ccc(C#Cc2ccccc2C#CCCCCO)cc1`, the GI50 was 17.3 µM and the TGI was determined as 31.5 µM.
In the case of `O=NN(Cc1ccc(Cl)cc1)C(C(=O)O)c1ccccc1` (stereo not drawn), the TGI was more than 100 µM.

The next test has as its system MDA-MB-231 breast. As to the kind of experiment: NCI tumour cell line growth inhibition, 48 h.
On to `CCOc1cccc(/C=N/NC(=O)c2ccccc2Nc2ccnc(C(F)(F)F)c2)c1O`, for which the GI50 is 0.7 µM and the TGI was more than 100 µM.
With `COc1ccc2c(c1)c(-c1nc(-c3cn(C)c4ncccc34)cs1)cn2CCCN1CCCCC1`, the GI50 is 1.78 µM and the TGI was 3.37 µM.
In the case of `CSc1cc(N=Nc2nc3ccccc3s2)c2ccccc2c1O`, the GI50 is 6.97 µM and the TGI was 14.6 µM.
On to `CCOC(=O)/C=C(/C(=O)OCC)n1cc(Cl)c(=O)n(CC(=O)OCC)c1=O`, for which the GI50 is 20.6 µM; the TGI is 10.7 µM and 36.8 µM.
Regarding `CC1=C(C(=O)Nc2ccc3[nH]ncc3c2)C(c2ccc3ccccc3c2)CC(=O)N1` (stereo not drawn), the GI50 was 11.7 µM and the TGI is more than 25 µM.
The compound `O=C1NNC=Nc2ccc(cc2)S(=O)(=O)c2ccc(cc2)N=CNNC1=O` returned a TGI of more than 100 µM.
Consider `CC1OC(O[C@H]2C[C@@H](O)[C@]3(CO)[C@H]4[C@H](O)C[C@]5(C)[C@@H](C6=CC(=O)OC6)CC[C@]5(O)[C@@H]4CC[C@]3(O)C2)C(O)C(O)C1O` (stereo partly drawn), for which the GI50 is 21 µM and the TGI is 40.5 µM.
`CCCCC(=O)OCC1OC(n2cnc3c(=S)nc[nH]c32)C(OC(=O)CCCC)C1OC(=O)CCCC` (stereo not drawn): the GI50 was 5.22 µM and the TGI is more than 100 µM.
Take `O=c1oc2ccc(F)cc2c(=O)n1-c1ccc(F)cc1F`: the GI50 is 2.3 µM and the TGI came out at 6.99 µM.
In the same order, the values of `Cn1cc(-c2cnc3ccc(NC(=O)Nc4ccc(F)c(Br)c4)cc3n2)cn1` are 1.78 µM and 4.14 µM.
In the case of `O=C(O)CCCCC(CCSCc1ccccc1)SCc1ccccc1` (stereo not drawn), the GI50 is more than 66.9 µM and the TGI was more than 100 µM.
Regarding `CC1=C(CCCNS(C)(=O)=O)C2=C(C)C3(CC3)[C@@](C)(O)C(=O)C2=C1`, the GI50 was 1.63 µM and the TGI worked out at 6.5 µM.
Compound `O=C1CNCCCN2CCN(CCCNCC(=O)Nc3ccc(cc3)S(=O)(=O)c3ccc(cc3)NC(=O)CNCCCN3CCN(CCCNCC(=O)Nc4ccc(cc4)S(=O)(=O)c4ccc(cc4)N1)CC3)CC2` registered a TGI of 52.1 µM.
As to `N#Cc1ccc(C#Cc2ccccc2C#CCCCCO)cc1`, the GI50 is 16.7 µM and the TGI was found to be 31.3 µM.
`O=NN(Cc1ccc(Cl)cc1)C(C(=O)O)c1ccccc1` (stereo not drawn) returned a TGI of more than 100 µM.
